Data: PubChem BioAssay AID256 (DTP/NCI, 2004)
Values joined by “and” are separate entries in the source; they are usually repeats but may differ in a detail not shown here. Identical values can stand only once. Toxic doses and inconclusive results are not listed. How the source made its calls: active means survival T/C of 150% or more; inactive means T/C below 125% in these data.

Test system: CD2F1 mice, L1210 leukemia ip, survival T/C
Assay: NCI In Vivo Anticancer Drug Screen. Data for tumor model L1210 Leukemia (intraperitoneal) in CD2F1 (CDF1) mice
Conditions: higher = longer survival
How it was run: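 Mice carrying a transplanted tumor received test compound or vehicle alone. The value is the measurement in the treated group divided by that in the vehicle-treated control group.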

[1] = endpoint: mean survival time, dose: 100.0 mg/kg/injection, schedule: Q04DX003 (ip), vehicle: saline with Tween-80
[2] = endpoint: mean survival time, dose: 200.0 mg/kg/injection, schedule: Q04DX003 (ip), vehicle: saline with Tween-80
[3] = endpoint: mean survival time, dose: 400.0 mg/kg/injection, schedule: Q04DX003 (ip), vehicle: saline with Tween-80
[4] = endpoint: mean survival time, dose: 100.0 mg/kg/injection, schedule: Q04DX002 (ip), vehicle: saline with Tween-80
[5] = endpoint: mean survival time, dose: 200.0 mg/kg/injection, schedule: Q04DX002 (ip), vehicle: saline with Tween-80
[6] = endpoint: mean survival time, dose: 400.0 mg/kg/injection, schedule: Q04DX002 (ip), vehicle: saline with Tween-80
[7] = endpoint: mean survival time, dose: 25.0 mg/kg/injection, schedule: Q01DX009 (ip), vehicle: saline
[8] = endpoint: mean survival time, dose: 50.0 mg/kg/injection, schedule: Q01DX009 (ip), vehicle: saline
[9] = endpoint: mean survival time, dose: 100.0 mg/kg/injection, schedule: Q01DX009 (ip), vehicle: saline
[10] = endpoint: mean survival time, dose: 50.0 mg/kg/injection, schedule: Q01DX009 (ip), vehicle: saline with Tween-80
[11] = endpoint: mean survival time, dose: 100.0 mg/kg/injection, schedule: Q01DX009 (ip), vehicle: saline with Tween-80
[12] = endpoint: mean survival time, dose: 200.0 mg/kg/injection, schedule: Q01DX009 (ip), vehicle: saline
[13] = endpoint: mean survival time, dose: 37.5 mg/kg/injection, schedule: Q01DX009 (ip), vehicle: saline
[14] = endpoint: mean survival time, dose: 75.0 mg/kg/injection, schedule: Q01DX009 (ip), vehicle: saline
[15] = endpoint: mean survival time, dose: 200.0 mg/kg/injection, schedule: Q01DX009 (ip), vehicle: saline with Tween-80
[16] = endpoint: mean survival time, dose: 25.0 mg/kg/injection, schedule: Q01DX009 (ip), vehicle: saline with Tween-80

Measured: T/C

O=C(c1ccccc1)c1cc(-c2ccccc2)nc2ccccc2c2ccccc2[nH]1
inactive: endpoint: mean survival time, dose: 100.0 mg/kg/injection, schedule: Q01DX001 (ip), vehicle: Klucel (hydroxypropylcellulose) (HPC) 93 % of control | endpoint: mean survival time, dose: 200.0 mg/kg/injection, schedule: Q01DX001 (ip), vehicle: Klucel (hydroxypropylcellulose) (HPC) 91 % of control | endpoint: mean survival time, dose: 400.0 mg/kg/injection, schedule: Q01DX001 (ip), vehicle: Klucel (hydroxypropylcellulose) (HPC) 100 % of control

CSc1nc(NC2OCC(O)C(O)C2O)c(I)c(=O)[nH]1 (configuration not stated)
inactive: endpoint: median survival time, dose: 12.5 mg/kg/injection, schedule: Q01DX005 (ip), vehicle: saline with Tween-80 100 % of control | endpoint: median survival time, dose: 25.0 mg/kg/injection, schedule: Q01DX005 (ip), vehicle: saline with Tween-80 100 % of control | endpoint: median survival time, dose: 50.0 mg/kg/injection, schedule: Q01DX005 (ip), vehicle: saline with Tween-80 103 % of control | endpoint: median survival time, dose: 100.0 mg/kg/injection, schedule: Q01DX005 (ip), vehicle: saline with Tween-80 107 % of control | endpoint: median survival time, dose: 200.0 mg/kg/injection, schedule: Q01DX005 (ip), vehicle: saline with Tween-80 107 % of control

CCCCCCCCCCC(O)CCCCCCCCCC
inactive: [1] 100 % of control | [2] 90 % of control | [3] 90 % of control

CCCCCCCCCSCCS
inactive: [4] 96 % of control | [5] 89 % of control | [6] 100 % of control

c1ccc2[nH]c(CCCCc3nc4ccccc4[nH]3)nc2c1
inactive: endpoint: mean survival time, dose: 100.0 mg/kg/injection, schedule: Q04DX003 (ip), vehicle: saline 104 % of control | endpoint: mean survival time, dose: 200.0 mg/kg/injection, schedule: Q04DX003 (ip), vehicle: saline 100 % of control

CCOC(=O)C1OC1(C)c1ccc(Cl)cc1 (configuration not stated)
inactive: endpoint: mean survival time, dose: 100.0 mg/kg/injection, schedule: Q04DX003 (ip), vehicle: other 95 % of control | endpoint: mean survival time, dose: 200.0 mg/kg/injection, schedule: Q04DX003 (ip), vehicle: other 110 % of control | endpoint: mean survival time, dose: 400.0 mg/kg/injection, schedule: Q04DX003 (ip), vehicle: other 96 % of control

CCCN1CCN(c2ccccc2)CC1
inactive: [7] 103 % of control | [8] 103 % of control | [9] 96 % of control | [1] 103 % of control

c1ccc(Oc2ccc(-c3ccc(Oc4ccccc4)cc3)cc2)cc1
inactive: [2] 95 % of control | [3] 91 % of control

CCCCCCCCCCCCCCCc1nnc(SC)s1
inactive: [10] 95 % of control | [11] 88 % of control | [1] 91 % of control | [2] 87 % of control | [3] 96 % of control

CN(C)S(=O)(=O)C=C(c1ccccc1)c1ccccc1
inactive: [1] 107 % of control | [2] 96 % of control | [3] 94 % of control

OC(C=C(C(F)(F)F)C(F)(F)F)c1cccs1 (configuration not stated)
inactive: [11] 95 % of control

O=c1cc(-c2ccccc2)nc(N[N+](=O)[O-])[nH]1
inactive: [1] 100 % of control | [2] 94 % of control

CCCCCCCCCCCCOP(=S)(OCC)OCC
inactive: [4] 98 % of control | [5] 95 % of control | [6] 91 % of control

COC1c2cc3ccccc3nc2-c2ccccc2C1(C)C (configuration not stated)
inactive: endpoint: mean survival time, dose: 12.5 mg/kg/injection, schedule: Q01DX009 (ip), vehicle: water 96 % of control | endpoint: mean survival time, dose: 25.0 mg/kg/injection, schedule: Q01DX009 (ip), vehicle: water 96 % of control | endpoint: mean survival time, dose: 50.0 mg/kg/injection, schedule: Q01DX009 (ip), vehicle: water 91 % of control | endpoint: mean survival time, dose: 100.0 mg/kg/injection, schedule: Q01DX009 (ip), vehicle: water 91 % of control | endpoint: mean survival time, dose: 200.0 mg/kg/injection, schedule: Q01DX009 (ip), vehicle: water 90 % of control

O=C(O)c1cc(-c2ccc(F)cc2)nc2ccc(F)cc12
inactive: [1] 101 % of control | [2] 97 % of control

O=C1/C(=C/c2cccc([N+](=O)[O-])c2)CCc2ccccc21
inactive: [9] 94 % of control | [12] 97 % of control | endpoint: mean survival time, dose: 400.0 mg/kg/injection, schedule: Q01DX009 (ip), vehicle: saline 91 % of control

CC1CCCC2(C)CCC(C(C)(C)O)CC12 (configuration not stated)
inactive: endpoint: mean survival time, dose: 100.0 mg/kg/injection, schedule: Q01DX001 (ip), vehicle: saline 103 % of control | endpoint: mean survival time, dose: 200.0 mg/kg/injection, schedule: Q01DX001 (ip), vehicle: saline 100 % of control | endpoint: mean survival time, dose: 400.0 mg/kg/injection, schedule: Q01DX001 (ip), vehicle: saline 103 % of control

Cc1cccc(Cl)c1NC(=O)CS
inactive: [1] 98 % of control | [2] 98 % of control | [3] 98 % of control

CC(C)/C(=N\[N+](C)(C)C)c1ccccc1
inactive: endpoint: mean survival time, dose: 18.8 mg/kg/injection, schedule: Q01DX009 (ip), vehicle: saline 97 % of control | [13] 96 % of control | [14] 91 % of control

O=c1c2ccccc2oc2ccccc12
inactive: [10] 95 % of control | [11] 100 % of control | [15] 93 % of control

CC(C)OC(=O)Oc1cccs1
inactive: endpoint: mean survival time, dose: 12.5 mg/kg/injection, schedule: Q01DX009 (ip), vehicle: saline with Tween-80 102 % of control | endpoint: mean survival time, dose: 12.5 mg/kg/injection, schedule: Q04DX003 (ip), vehicle: saline sonified 103 % of control | [16] 96 % of control | endpoint: mean survival time, dose: 25.0 mg/kg/injection, schedule: Q04DX003 (ip), vehicle: saline sonified 97 % of control | [10] 104 % of control | endpoint: mean survival time, dose: 50.0 mg/kg/injection, schedule: Q04DX003 (ip), vehicle: saline sonified 101 % of control

O=C(N1CCOCC1)C1(c2ccccc2)CCNCC1
inactive: [8] 93 % of control | [9] 104 % of control

CCOC(=O)/C=C/c1ccc2c(c1)OCO2
inactive: [1] 97 % of control | [2] 94 % of control | [3] 103 % of control

Cc1ccc(Cl)c2nc(-c3ccccc3)ccc12
inactive: [13] 105 % of control | [14] 116 % of control | endpoint: mean survival time, dose: 75.0 mg/kg/injection, schedule: Q04DX003 (ip), vehicle: saline 112 % of control | endpoint: mean survival time, dose: 150.0 mg/kg/injection, schedule: Q01DX009 (ip), vehicle: saline 101 % of control | endpoint: mean survival time, dose: 150.0 mg/kg/injection, schedule: Q04DX003 (ip), vehicle: saline 103 % of control | endpoint: mean survival time, dose: 300.0 mg/kg/injection, schedule: Q04DX003 (ip), vehicle: saline 93 % of control

COc1cc2ccnc(/C=N\NC(N)=S)c2cc1OC
inactive: [16] 93 % of control | [10] 96 % of control | [11] 96 % of control | [15] 95 % of control

Nc1c(C(=O)O)cnn1CCO
inactive: endpoint: mean survival time, dose: 50.0 mg/kg/injection, schedule: Q04DX003 (ip), vehicle: water 94 % of control | endpoint: mean survival time, dose: 100.0 mg/kg/injection, schedule: Q04DX003 (ip), vehicle: water 100 % of control | endpoint: mean survival time, dose: 200.0 mg/kg/injection, schedule: Q04DX003 (ip), vehicle: water 100 % of control | endpoint: mean survival time, dose: 400.0 mg/kg/injection, schedule: Q04DX003 (ip), vehicle: water 97 % of control and 100 % of control | endpoint: mean survival time, dose: 700.0 mg/kg/injection, schedule: Q04DX003 (ip), vehicle: water 89 % of control

CC(C)OC(=O)Nc1ccccc1F
inactive: endpoint: mean survival time, dose: 100.0 mg/kg/injection, schedule: Q01DX009 (ip), vehicle: other 97 % of control | endpoint: mean survival time, dose: 200.0 mg/kg/injection, schedule: Q01DX009 (ip), vehicle: other 96 % of control | endpoint: mean survival time, dose: 400.0 mg/kg/injection, schedule: Q01DX009 (ip), vehicle: other 94 % of control

Cc1nc(N)nc(N)c1CCCOc1ccc(NC(=O)c2cccc(S(=O)(=O)F)c2)cc1
inactive: endpoint: mean survival time, dose: 12.5 mg/kg/injection, schedule: Q01DX009 (ip), vehicle: saline 101 % of control | [7] 107 % of control | [8] 107 % of control | [9] 109 % of control | endpoint: mean survival time, dose: 100.0 mg/kg/injection, schedule: Q#A X018 (ip), vehicle: saline 90 % of control | [12] 107 % of control

Cc1ccc(-c2nc(SCc3ccc(Cl)cc3)[nH]c(=O)c2CCO)cc1
inactive: endpoint: mean survival time, dose: 100.0 mg/kg/injection, schedule: Q04DX003 (ip), vehicle: Klucel (hydroxypropylcellulose) (HPC) 96 % of control | endpoint: mean survival time, dose: 200.0 mg/kg/injection, schedule: Q04DX003 (ip), vehicle: Klucel (hydroxypropylcellulose) (HPC) 87 % of control

CCCCOC(=O)/C=C\C(=O)OC(C)C(=O)OCCCC (configuration not stated)
inactive: endpoint: median survival time, dose: 50.0 mg/kg/injection, schedule: Q04DX002 (ip), vehicle: saline with Tween-80 100 % of control | endpoint: median survival time, dose: 100.0 mg/kg/injection, schedule: Q04DX002 (ip), vehicle: saline with Tween-80 100 % of control | endpoint: median survival time, dose: 200.0 mg/kg/injection, schedule: Q04DX002 (ip), vehicle: saline with Tween-80 100 % of control | endpoint: median survival time, dose: 400.0 mg/kg/injection, schedule: Q04DX002 (ip), vehicle: saline with Tween-80 88 % of control
